Values after ≈ are worked out from the molar mass of the structure shown.
Tests used:
Pseudomonas aeruginosa [1] = assay: Antibacterial activity against Pseudomonas aeruginosa PAO1 after 24 hrs by geometric microdilution method; format: functional
Staphylococcus aureus [2] = assay: Antibacterial activity against Staphylococcus aureus ATCC 25923 after 24 hrs by geometric microdilution method; format: functional; settings: ATCC 25923, 24 h
Pseudomonas aeruginosa [3] = assay: Antibacterial activity against MexAB expressing Pseudomonas aeruginosa PA21 after 24 hrs by geometric microdilution method; format: functional
Pseudomonas aeruginosa [4] = assay: Antibacterial activity against MexXY expressing Pseudomonas aeruginosa PT629 after 24 hrs by geometric microdilution method; format: functional
Staphylococcus aureus [5] = assay: Antibacterial activity against vancomycin-resistant Staphylococcus aureus VRS-2 after 24 hrs by geometric microdilution method; format: functional; settings: VRS-2, 24 h
Staphylococcus aureus [6] = assay: Antibacterial activity against methicillin-resistant Staphylococcus aureus ATCC 33592 clinical isolate after 24 hrs by geometric microdilution method; format: functional; settings: ATCC 33592, 24 h
Staphylococcus aureus [7] = assay: Antibacterial activity against aminoglycoside-4'-O-phosphoryltransferase expressing Staphylococcus aureus after 24 hrs by geometric microdilution method; format: functional
Staphylococcus aureus [8] = assay: Antibacterial activity against aminoglycoside-3'-O-phosphoryltransferase expressing Staphylococcus aureus after 24 hrs by geometric microdilution method; format: functional
Klebsiella pneumoniae = assay: Antibacterial activity against Klebsiella pneumoniae ATCC 700603 after 24 hrs by geometric microdilution method; format: functional
Staphylococcus aureus [9] = assay: Antibacterial activity against MsrA pump expressing Staphylococcus aureus after 24 hrs by geometric microdilution method; format: functional
Pseudomonas aeruginosa [10] = assay: Antibacterial activity against AAC6'-2a expressing Pseudomonas aeruginosa F03 after 24 hrs by geometric microdilution method; format: functional
Acinetobacter lwoffii [11] = assay: microbe, parasite or virus in culture; settings: ATCC 17925, 24 h
Description: Antibacterial activity against Acinetobacter lwoffii ATCC 17925 after 24 hrs by geometric microdilution method

Escherichia coli [12] = assay: Antibacterial activity against ANT2'-2a expressing Escherichia coli L58058.1 after 24 hrs by geometric microdilution method; format: functional
Escherichia coli [13] = assay: microbe, parasite or virus in culture; settings: ATCC 25922, 24 h
Description: Antibacterial activity against Escherichia coli ATCC 25922 after 24 hrs by geometric microdilution method

Pseudomonas aeruginosa [14] = assay: Antibacterial activity against TriABC expressing MexAB, MexCD, MexEF, MexXY deleted Pseudomonas aeruginosa PA405 after 24 hrs by geometric microdilution method; format: functional
Acinetobacter lwoffii [15] = assay: Antibacterial activity against […] expressing Acinetobacter lwoffii AI.88-483 after 24 hrs by geometric microdilution method; format: functional
Escherichia coli [16] = assay: Antibacterial activity against AAC6'-2b expressing Escherichia coli PAZ505H8101 after 24 hrs by geometric microdilution method; format: functional
Staphylococcus aureus [17] = assay: Antibacterial activity against aminoglycoside-6'-N-acetyltransferase/2''-O-phosphoryltransferase expressing Staphylococcus aureus after 24 hrs by geometric microdilution method; format: functional
Pseudomonas aeruginosa [18] = assay: Antibacterial activity against MexEF expressing Pseudomonas aeruginosa PA03 after 24 hrs by geometric microdilution method; format: functional
Pseudomonas aeruginosa [19] = assay: Antibacterial activity against MexAB, MexCD, MexEF, MexXY, TriABC deleted Pseudomonas aeruginosa PA406 after 24 hrs by geometric microdilution method; format: functional
Pseudomonas aeruginosa [20] = assay: Antibacterial activity against Pseudomonas aeruginosa ATCC 27853 after 24 hrs by geometric microdilution method; format: functional
Staphylococcus aureus [21] = assay: Antibacterial activity against NorA pump expressing Staphylococcus aureus after 24 hrs by geometric microdilution method; format: functional
Pseudomonas aeruginosa [22] = assay: Antibacterial activity against MexXY expressing Pseudomonas aeruginosa PA22 after 24 hrs by geometric microdilution method; format: functional
Pseudomonas aeruginosa [23] = assay: Antibacterial activity against MexCD expressing Pseudomonas aeruginosa PA01 after 24 hrs by geometric microdilution method; format: functional
Klebsiella aerogenes = assay: Antibacterial activity against R-methylase expressing Enterobacter aerogenes 06AB008 after 24 hrs by geometric microdilution method; format: functional
Citrobacter amalonaticus = assay: Antibacterial activity against R-methylase expressing Citrobacter amalonaticus 06AB0010 after 24 hrs by geometric microdilution method; format: functional
Escherichia coli [24] = assay: Antibacterial activity against R-methylase expressing Escherichia coli 06AB003 after 24 hrs by geometric microdilution method; format: functional

Molecule | MIC (Pseudomonas aeruginosa [1]; PAO1, 24 h) [µg/mL] | MIC (Staphylococcus aureus [2]) [µg/mL] | MIC (Pseudomonas aeruginosa [3]; PA21, 24 h) [µg/mL] | MIC (Pseudomonas aeruginosa [4]; PT629, 24 h) [µg/mL] | MIC (Staphylococcus aureus [6]) [µg/mL] | MIC (Staphylococcus aureus [7]) [µg/mL] | MIC (Staphylococcus aureus [8]) [µg/mL] | MIC (Klebsiella pneumoniae; ATCC 700603, 24 h) [µg/mL] | MIC (Staphylococcus aureus [9]) [µg/mL] | MIC (Pseudomonas aeruginosa [10]; F03, 24 h) [µg/mL] | MIC (Escherichia coli [12]; L58058.1, 24 h) [µg/mL] | MIC (Pseudomonas aeruginosa [14]; PA405, 24 h) [µg/mL] | MIC (Acinetobacter lwoffii [15]; AI.88-483, 24 h) [µg/mL] | MIC (Escherichia coli [16]; PAZ505H8101, 24 h) [µg/mL] | MIC (Staphylococcus aureus [17]) [µg/mL] | MIC (Pseudomonas aeruginosa [18]; PA03, 24 h) [µg/mL] | MIC (Pseudomonas aeruginosa [19]; PA406, 24 h) [µg/mL] | MIC (Pseudomonas aeruginosa [20]; ATCC 27853, 24 h) [µg/mL] | MIC (Staphylococcus aureus [21]) [µg/mL] | MIC (Pseudomonas aeruginosa [22]; PA22, 24 h) [µg/mL] | also measured
NC[C@H]1O[C@H](O[C@H]2[C@H](O)[C@@H](OCc3ccc4ccccc4c3)[C@H](N)C[C@@H]2N)[C@H](N)[C@@H](O)[C@@H]1OCc1ccc2ccccc2c1 | > 128 | 32 (≈ 53.1 µM) | > 128 | > 128 | 64 (≈ 106 µM) | 16 (≈ 26.5 µM) | 16 (≈ 26.5 µM) | > 128 | 32 (≈ 53.1 µM) | > 128 | 128 (≈ 212 µM) | 32 (≈ 53.1 µM) | > 128 | 64 (≈ 106 µM) | 32 (≈ 53.1 µM) | 16 (≈ 26.5 µM) | 16 (≈ 26.5 µM) | > 128 | 32 (≈ 53.1 µM) | > 128 | MIC (Staphylococcus aureus [5]): 32 µg/mL (≈ 53.1 µM); MIC (Acinetobacter lwoffii [11]): 64 µg/mL (≈ 106 µM); MIC (Escherichia coli [13]): 128 µg/mL (≈ 212 µM); MIC (Pseudomonas aeruginosa [23]; PA01, 24 h): 128 µg/mL (≈ 212 µM)
NC[C@H]1O[C@H](O[C@H]2[C@H](O)[C@@H](OCc3ccccc3)[C@H](N)C[C@@H]2N)[C@H](N)[C@@H](OCc2ccccc2)[C@@H]1O |  | > 128 |  |  |  | > 128 | > 128 |  | > 128 |  |  |  |  |  | > 128 |  |  |  | > 128 |  | 
NC[C@H]1O[C@H](O[C@H]2[C@H](OCc3ccc4ccccc4c3)[C@@H](O)[C@H](N)C[C@@H]2N)[C@H](N)[C@@H](O)[C@@H]1OCc1ccc2ccccc2c1 | > 128 | 64 (≈ 106 µM) | > 128 | > 128 | 64 (≈ 106 µM) | 128 (≈ 212 µM) | 32 (≈ 53.1 µM) | > 128 | 128 (≈ 212 µM) | > 128 | 128 (≈ 212 µM) | 16 (≈ 26.5 µM) | > 128 | 128 (≈ 212 µM) | 128 (≈ 212 µM) | > 128 | 16 (≈ 26.5 µM) | 128 (≈ 212 µM) | 128 (≈ 212 µM) | > 128 | MIC (Staphylococcus aureus [5]): 64 µg/mL (≈ 106 µM); MIC (Acinetobacter lwoffii [11]): 32 µg/mL (≈ 53.1 µM); MIC (Escherichia coli [13]): 128 µg/mL (≈ 212 µM); MIC (Pseudomonas aeruginosa [23]; PA01, 24 h): > 128 µg/mL
NC[C@H]1O[C@H](O[C@H]2[C@H](O)[C@@H](OCc3ccccn3)[C@H](N)C[C@@H]2N)[C@H](N)[C@@H](OCc2ccccn2)[C@@H]1OCc1ccccn1 |  | > 128 |  |  |  | > 128 | > 128 |  | > 128 |  |  |  |  |  | > 128 |  |  |  | > 128 |  | 
NC[C@H]1O[C@H](O[C@H]2[C@H](OCc3ccc4ccccc4c3)[C@@H](OCc3ccc4ccccc4c3)[C@H](N)C[C@@H]2N)[C@H](N)[C@@H](OCc2ccc3ccccc3c2)[C@@H]1OCc1ccc2ccccc2c1 | 64 (≈ 72.5 µM) |  | 64 (≈ 72.5 µM) | 64 (≈ 72.5 µM) |  |  |  | 128 (≈ 145 µM) |  | 64 (≈ 72.5 µM) | 64 (≈ 72.5 µM) | 64 (≈ 72.5 µM) | > 128 | 64 (≈ 72.5 µM) |  | 64 (≈ 72.5 µM) | 64 (≈ 72.5 µM) | 64 (≈ 72.5 µM) |  | 64 (≈ 72.5 µM) | MIC (Pseudomonas aeruginosa [23]; PA01, 24 h): 64 µg/mL (≈ 72.5 µM)
NC[C@H]1O[C@H](O[C@H]2[C@H](O)[C@@H](OCc3ccc4ccccc4n3)[C@H](N)C[C@@H]2N)[C@H](N)[C@@H](OCc2ccc3ccccc3n2)[C@@H]1O |  | > 128 |  |  |  | > 128 | > 128 |  | > 128 |  |  |  |  |  | > 128 |  |  |  | > 128 |  | 
NC[C@H]1O[C@H](O[C@H]2[C@H](O)[C@@H](OCc3ccc4ccccc4c3)[C@H](N)C[C@@H]2N)[C@H](N)[C@@H](O)[C@@H]1O |  | > 128 |  |  | > 128 | > 128 | > 128 |  | > 128 |  |  |  |  |  | > 128 |  |  |  | > 128 |  | 
GENTAMICIN |  |  |  |  |  |  |  |  |  |  |  |  |  |  |  |  |  |  |  |  | MIC (Pseudomonas aeruginosa [1]): 2 µg/mL; MIC (Pseudomonas aeruginosa [3]): 1 µg/mL; MIC (Pseudomonas aeruginosa [4]): 4 µg/mL; MIC (Klebsiella aerogenes): > 128 µg/mL; MIC (Citrobacter amalonaticus): > 128 µg/mL; MIC (Klebsiella pneumoniae): 8 µg/mL; MIC (Pseudomonas aeruginosa [10]): > 28 µg/mL; MIC (Escherichia coli [12]): 64 µg/mL; MIC (Pseudomonas aeruginosa [14]): < 0.125 µg/mL; MIC (Acinetobacter lwoffii [15]): 4 µg/mL; MIC (Escherichia coli [16]): 1 µg/mL; MIC (Pseudomonas aeruginosa [18]): 1 µg/mL; MIC (Escherichia coli [24]): > 128 µg/mL; MIC (Pseudomonas aeruginosa [19]): < 0.125 µg/mL; MIC (Pseudomonas aeruginosa [20]): 1 µg/mL; MIC (Pseudomonas aeruginosa [22]): 4 µg/mL; MIC (Pseudomonas aeruginosa [23]): 1 µg/mL

Source: ChEMBL document CHEMBL1156794, “Synthesis and antimicrobial evaluation of amphiphilic neamine derivatives” (J Med Chem, 2010)
